Usually EC50 stands for the concentration that produces a half-maximal response.

The target in the assay is T1, GFRα1-RET (Homo sapiens, UniProt P56159).
T1 construct: expressed in transfected cells; host or cells: MG87 murine fibroblasts stably transfected with PathDetect Elk-1, GFRα1 and RET
T1 sequence (P56159 25-429 limits assumed): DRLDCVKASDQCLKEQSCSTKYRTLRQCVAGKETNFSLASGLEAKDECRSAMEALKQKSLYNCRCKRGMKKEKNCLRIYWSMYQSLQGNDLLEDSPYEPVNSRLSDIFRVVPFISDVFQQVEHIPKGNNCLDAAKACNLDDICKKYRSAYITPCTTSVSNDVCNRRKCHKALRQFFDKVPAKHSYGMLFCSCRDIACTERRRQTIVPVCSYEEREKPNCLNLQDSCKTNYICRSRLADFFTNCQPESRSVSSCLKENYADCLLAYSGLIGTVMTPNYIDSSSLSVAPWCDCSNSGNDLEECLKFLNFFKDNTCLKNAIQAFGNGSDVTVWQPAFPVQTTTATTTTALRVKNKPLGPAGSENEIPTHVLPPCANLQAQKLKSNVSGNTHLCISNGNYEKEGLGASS
In words: Elk1 luciferase reporter-gene assay in cells expressing GFRα1-RET. Type of assay: cell-based. The conditions noted are these: agonist/activator activity of Elk1 signaling; MG87 murine fibroblast stably transfected with PathDetect Elk-1, GFRα1 and RET; 6 concentrations, duplicate, two independent runs. On the procedure:
For EC50 determination, a dose-response test was performed using 6 concentrations of each tested compound. Dose-response curves were fitted using the sigmoidal dose-response (variable slope) analysis in GraphPad Prism program (Graph Pad Inc) and EC50 of agonist/activator activity was calculated. Dose-response experiments were all performed in duplicate, two times independently.
In the case of `CCC(CC)S(=O)(=O)c1ccc(OC)c(N2CCN(C(=O)c3ccc(F)cc3Cl)CC2C)c1` (racemic) [Cpd 007, (2-chloro-4-fluoro-phenyl)-[rac-(3S)-4-[5-(1-ethylpropylsulfonyl)-2-methoxy-phenyl]-3-methyl-piperazin-1-yl]methanone], the 50% effective concentration (EC50) was 1 to 10 µM.
In the case of `COc1ccc(S(=O)(=O)C2CCC2)cc1N1[C@@H]2CC[C@H]1CN(C(=O)c1ccc(F)cc1Cl)C2` [Cpd 010, (2-chloro-4-fluoro-phenyl)-[(1S,5R)-8-(5-cyclobutylsulfonyl-2-methoxy-phenyl)-3,8-diazabicyclo[3.2.1]octan-3-yl]methanone], the EC50 is 1 to 10 µM.
The value for `COc1ccc(S(=O)(=O)CC(C)C)cc1N1CCN(C(=O)c2ccc(F)cc2C(F)(F)F)CC1` [Cpd 018, [4-fluoro-2-(trifluoromethyl)phenyl]-[4-(5-isobutylsulfonyl-2-methoxy-phenyl)piperazin-1-yl]methanone] was 10 to 50 µM; that for `COc1ccc(S(=O)(=O)CC2CCC2)cc1N1CCN(C(=O)c2ccc(F)cc2Cl)CC1` [Cpd 012, (2-chloro-4-fluoro-phenyl)-[4-[5-(cyclobutylmethylsulfonyl)-2-methoxy-phenyl]piperazin-1-yl]methanone] was 10 to 50 µM.
The value for `COc1ccc(S(=O)(=O)C(C)CCc2ccccc2)cc1N1C2CCC1CN(C(=O)c1ccc(F)cc1Cl)C2` (racemic) [Cpd 023, (2-chloro-4-fluoro-phenyl)-[(1S,5R)-8-[2-methoxy-5-[(1SR)-1-methyl-3-phenyl-propyl]sulfonyl-phenyl]-3,8-diazabicyclo[3.2.1]octan-3-yl]methanone] was 1 to 10 µM; that for `COc1ccc(S(=O)(=O)C(C)C)cc1N1CCN(C(=O)c2ccc(F)cc2Cl)CC1` [Cpd 008, (2-chloro-4-fluoro-phenyl)-[4-(5-isopropylsulfonyl-2-methoxy-phenyl)piperazin-1-yl]methanone] was 10 to 50 µM; that for `CCC(CC)S(=O)(=O)c1ccc(OC)c(N2CCN(C(=O)c3ccc(F)cc3C(F)(F)F)CC2)c1` [Cpd 001, [4-[5-(1-ethylpropylsulfonyl)-2-methoxy-phenyl]piperazin-1-yl]-[4-fluoro-2-(trifluoromethyl)phenyl]methanone] was 10 to 50 µM.
For `COc1ccc(S(=O)(=O)C2CCN(CCc3ccccc3)CC2)cc1N1[C@@H]2CC[C@H]1CN(C(=O)c1ccc(F)cc1Cl)C2` [Cpd 028, (2-chloro-4-fluoro-phenyl)-[(1S,5R)-8-[2-methoxy-5-[[1-(2-phenylethyl)-4-piperidyl]sulfonyl]phenyl]-3,8-diazabicyclo[3.2.1]octan-3-yl]methanone] the value was 1 to 10 µM.
In the case of `COc1ccc(S(=O)(=O)Cc2ccccc2)cc1N1[C@@H]2CC[C@H]1CN(C(=O)c1ccc(F)cc1Cl)C2` [Cpd 014, [(1S,5R)-8-(5-benzylsulfonyl-2-methoxy-phenyl)-3,8-diazabicyclo[3.2.1]octan-3-yl]-(2-chloro-4-fluoro-phenyl)methanone], the EC50 lay within 10 to 50 µM.

Source of the values: patent US20260042770A1, “NOVEL SULFONES AND THEIR USE AS NEUROPROTECTIVE AND/OR NEURORESTORATIVE AGENTS” (GENECODE, priority 2022, published 2026).
